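The compound was tested at five concentrations on cells cultured in 96-well plates, with a 48-hour exposure period. TGI marks complete inhibition of growth.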 Where a SMILES comes first, the peptide text is derived from it. [ ]: non-standard residue; d: D form. A value given as a limit tells only on which side of the number the result lay.

This is an account of results in PubChem BioAssay (NCI).

Among the test systems are CCRF-CEM leukemia; OVCAR-3 ovarian; LOX IMVI melanoma; EKVX NSCLC; OVCAR-4 ovarian; COLO 205 colon; NCI/ADR-RES ovarian; 786-0 renal; UACC-62 melanoma; NCI-H226 lung; OVCAR-5 ovarian; NCI-H460 lung.
Holding throughout (experiment): NCI-60 cell line screen, 48 h

As for `O=C(NNC(=O)c1csc(NC(=S)NC2CCCCC2)n1)c1ccccc1`, the TGI in the assay with CCRF-CEM leukemia is 68.6 µM; in the assay with OVCAR-3 ovarian, 16.4 µM; in the assay on LOX IMVI melanoma, 22 µM; in the assay with EKVX NSCLC, 28.4 µM; with OVCAR-4 ovarian, over 100 µM; in the assay with COLO 205 colon it was 20.1 µM. The TGI with NCI/ADR-RES ovarian is 50.8 µM; in the assay with 786-0 renal, 31 µM; in the assay with UACC-62 melanoma it was 23.9 µM; with NCI-H226 lung, 49.5 µM; with OVCAR-5 ovarian, 76.3 µM.

For `CC(C)Oc1c(-c2ccc(F)cc2)c(O)c2c3c1oc(=O)n3C=CC2C` (configuration not stated), the TGI with CCRF-CEM leukemia turned out to be 29.8 µM; in the assay on OVCAR-3 ovarian, 27.9 µM; in the assay on LOX IMVI melanoma, 28.2 µM; with EKVX NSCLC, 30.6 µM; with NCI-H460 lung, 29.1 µM; in the assay on OVCAR-4 ovarian, 23.3 µM. The TGI in the assay with COLO 205 colon stood at 32.2 µM; in the assay with NCI/ADR-RES ovarian it was 29.3 µM; with 786-0 renal it was 27.8 µM; with UACC-62 melanoma, 29.4 µM; in the assay on NCI-H226 lung, 26.9 µM; in the assay with OVCAR-5 ovarian it was 62.2 µM.

Turning to `N#Cc1c(O)c(/C=N/c2ncccn2)c(=O)n2c1[nH]c1ccccc12`, the TGI in the assay with CCRF-CEM leukemia, in the assay on OVCAR-3 ovarian, in the assay with LOX IMVI melanoma, in the assay with EKVX NSCLC, in the assay on NCI-H460 lung and in the assay with OVCAR-4 ovarian was over 100 µM in each case. Further, the TGI in the assay with COLO 205 colon, with NCI/ADR-RES ovarian, with 786-0 renal, in the assay with NCI-H226 lung and with OVCAR-5 ovarian was over 100 µM throughout.

`CCOC(=O)/C=C(/C)Nc1nc2c(c(C(=O)OC)c1C#N)CCCC2`: the TGI with CCRF-CEM leukemia, in the assay on LOX IMVI melanoma, in the assay on EKVX NSCLC, in the assay with NCI-H460 lung, with OVCAR-4 ovarian and with COLO 205 colon was over 100 µM each time. Moreover, the TGI in the assay with NCI/ADR-RES ovarian, in the assay on 786-0 renal, with UACC-62 melanoma, with NCI-H226 lung and with OVCAR-5 ovarian was over 100 µM throughout.

`C[C@@H]1CC[C@@]2(OC1)O[C@H]1C[C@H]3[C@@H]4CC[C@H]5C[C@@H](OC6OC(CO)C(OC7OC(CO)C(O)C(OC8OCC(O)C(O)C8O)C7OC7OC(CO)C(O)C(O)C7O)C(O)C6O)[C@H](O)C[C@]5(C)[C@H]4CC[C@]3(C)[C@H]1[C@@H]2C` (some centres not stated): the TGI in the assay on CCRF-CEM leukemia worked out at 1.53 µM; in the assay with OVCAR-3 ovarian, 9.56 µM; in the assay on LOX IMVI melanoma, 7.89 µM; with EKVX NSCLC it was 21 µM; with NCI-H460 lung, 4.17 µM; in the assay on OVCAR-4 ovarian it was 4.62 µM. The TGI in the assay on COLO 205 colon stood at 22 µM; with NCI/ADR-RES ovarian, 12.6 µM; in the assay with UACC-62 melanoma, 47.3 µM; in the assay on NCI-H226 lung it was 23.9 µM; in the assay on OVCAR-5 ovarian, 18.9 µM.

As to `CC(C)C[C@H](NC(=O)[C@H](CC(C)C)NC(=O)[C@@H](Cc1c[nH]c2ccccc12)NC(=O)[C@H](Cc1ccccc1)NC(=O)[C@@H](Cc1c[nH]c2ccccc12)NC(=O)[C@H](CCC(N)=O)NC(=O)[C@H](CCC(N)=O)NC(=O)[C@H]1CCCN1C(=O)[C@@H](N)CCCCN)C(N)=O` (H-K[dP]QQ[dW]F[dW]LL-NH2), the TGI in the assay with CCRF-CEM leukemia, with OVCAR-3 ovarian, in the assay with LOX IMVI melanoma, with EKVX NSCLC, in the assay with NCI-H460 lung and in the assay with OVCAR-4 ovarian was over 100 µM each time. Also, the TGI in the assay on COLO 205 colon, in the assay with NCI/ADR-RES ovarian, with UACC-62 melanoma, in the assay on NCI-H226 lung and in the assay with OVCAR-5 ovarian was over 100 µM in each case.

`Cc1ccc(Nc2nc3c(=O)n(C)c(=O)n(C)c3nc2Nc2ccc(C)cc2)cc1`: the TGI in the assay on CCRF-CEM leukemia was over 100 µM; in the assay with LOX IMVI melanoma, 22.6 µM; in the assay on EKVX NSCLC it was 30 µM; in the assay on NCI-H460 lung it was over 100 µM; in the assay with OVCAR-4 ovarian it was 23.9 µM; in the assay on COLO 205 colon it was 16 µM. Moreover, the TGI in the assay with NCI/ADR-RES ovarian is 35.1 µM; with 786-0 renal, 18.7 µM; in the assay with UACC-62 melanoma it was 25 µM; with NCI-H226 lung, over 100 µM; in the assay with OVCAR-5 ovarian, 31.2 µM.

As to `Cc1n(Cc2ccccc2)nc2sc(N)n[n+]12`, the TGI in the assay on CCRF-CEM leukemia, with OVCAR-3 ovarian, with LOX IMVI melanoma, with EKVX NSCLC, in the assay on OVCAR-4 ovarian and with COLO 205 colon was over 100 µM each time. The TGI in the assay with NCI/ADR-RES ovarian, in the assay with 786-0 renal, with UACC-62 melanoma, in the assay on NCI-H226 lung and with OVCAR-5 ovarian was over 100 µM each time.

As to `c1ccc(CSC2(SCc3ccccc3)CCCCC2)cc1`, the TGI in the assay on CCRF-CEM leukemia, in the assay with OVCAR-3 ovarian, in the assay with LOX IMVI melanoma, in the assay on EKVX NSCLC, with NCI-H460 lung and in the assay on OVCAR-4 ovarian was over 10 µM in each case. In addition, the TGI in the assay on COLO 205 colon, with NCI/ADR-RES ovarian, in the assay with 786-0 renal, in the assay with UACC-62 melanoma and in the assay with NCI-H226 lung was over 10 µM each time.

With `O=c1oc2cc(O)ccc2c(O)c1Cc1c(O)c2ccc(O)cc2oc1=O`, the TGI in the assay with CCRF-CEM leukemia, in the assay on OVCAR-3 ovarian, with LOX IMVI melanoma, in the assay on EKVX NSCLC, with NCI-H460 lung and in the assay with OVCAR-4 ovarian was over 100 µM throughout. Moreover, the TGI in the assay with COLO 205 colon, in the assay on NCI/ADR-RES ovarian, with UACC-62 melanoma, in the assay on NCI-H226 lung and in the assay on OVCAR-5 ovarian was over 100 µM in each case.

In the case of `Cc1ccc(C(=O)N/N=C(\N=Nc2ccc(C(=O)O)cc2)c2ccc(N(CCC#N)CCC#N)cc2C)cc1`, the TGI in the assay on CCRF-CEM leukemia, in the assay with OVCAR-3 ovarian, with LOX IMVI melanoma, in the assay on EKVX NSCLC, in the assay with NCI-H460 lung and with OVCAR-4 ovarian was over 100 µM throughout. Further, the TGI in the assay with COLO 205 colon, in the assay on NCI/ADR-RES ovarian, in the assay with 786-0 renal, with NCI-H226 lung and in the assay with OVCAR-5 ovarian was over 100 µM each time.
